How the values were obtained:
[1] = test system: antibodies in sera from SARS patients (sera 1a, 1b, 2, 6, 37, 62, London, SARS-yellow, SARS-green); assay type: binding, human; design: Binding of serum 6 to linear peptides of protein X1 of SARS-CoV Urbani / Binding of serum 37 to linear peptides of protein X1 of SARS-CoV Urbani / Binding of serum 6 to looped/cyclic peptide (PEPSCAN-ELISA) / Binding of serum 37 to looped/cyclic peptide (PEPSCAN-ELISA) / Binding of serum 37 to looped/cyclic peptides of protein X1 of SARS-CoV Urbani / Binding of serum 6 to linear peptides of protein X2 / Binding of serum 37 to linear peptides of protein X2 / Binding of serum 37 to looped/cyclic peptides of protein X2 of SARS-CoV Urbani / Binding of serum 6 to linear peptides of protein M of SARS-CoV Urbani / Binding of serum 37 to linear peptides of protein M of SARS-CoV Urbani / Binding of serum 6 to looped/cyclic peptides of protein M of SARS-CoV Urbani / Binding of serum 37 to looped/cyclic peptides of protein M of SARS-CoV Urbani / Binding of serum 6 to linear peptides of protein X3 of SARS-CoV Urbani / Binding of serum 37 to linear peptides of protein X3 of SARS-CoV Urbani / Binding of serum 37 to looped/cyclic peptides of protein X3 of SARS-CoV Urbani / Binding of serum 6 to linear peptides of protein X4 of SARS-CoV Urbani / Binding of serum 37 to linear peptides of protein X4 of SARS-CoV Urbani / Binding of serum 37 to looped/cyclic peptides of protein X4 of SARS-CoV Urbani / Binding of serum 6 to linear peptides of protein X5 of SARS-CoV Urbani / Binding of serum 37 to linear peptides of protein X5 of SARS-CoV Urbani / Binding of serum 37 to looped/cyclic peptides of protein X5 of SARS-CoV Urbani / Binding of serum 6 to linear peptides of protein N of SARS-CoV Urbani / Binding of serum 37 to linear peptides of protein N of SARS-CoV Urbani / Binding of serum 6 to linear peptide (PEPSCAN-ELISA) / Binding of serum 1a to looped/cyclic peptides of protein N of SARS-CoV Urbani / Binding of serum 1b to looped/cyclic peptides of protein N of SARS-CoV Urbani / Binding of serum 2 to looped/cyclic peptides of protein N of SARS-CoV Urbani / Binding of serum 6 to looped/cyclic peptides of protein N of SARS-CoV Urbani / Binding of serum 37 to looped/cyclic peptides of protein N of SARS-CoV Urbani / Binding of serum 62 to looped/cyclic peptides of protein N of SARS-CoV Urbani / Binding of serum London to looped/cyclic peptides of protein N of SARS-CoV Urbani / Binding of serum SARS-green to looped/cyclic peptides of protein N of SARS-CoV Urbani: unit not given here
[2] = test system: control sera (pooled serum of ten healthy LUMC hospital workers; commercial negative donor pooled serum from the Dutch bloodbank); assay type: binding, human; design: Binding of Control serum LUMC to linear peptides / Binding of Control serum Blood-bank to linear peptides / Binding of Control serum LUMC to looped peptides / Binding of Control Serum Blood-Bank to Looped peptides / Binding of Control serum LUMC to linear peptides of the protein M of SARS-CoV Urbani / Binding of Control serum Blood-bank to linear peptides of the protein M of SARS-CoV Urbani / Binding of Control serum LUMC to looped peptides of the protein M of SARS-CoV Urbani / Binding of Control Serum Blood-Bank to Looped peptides of the protein M of SARS-CoV Urbani: unit not given here
[3] = test system: rabbit serum obtained by immunizing a rabbit with the SARS-CoV strain Frankfurt 1; assay type: binding; design: Binding of a rabbit serum to linear peptides / Binding of a rabbit serum to looped peptides / Rabbit serum linear peptides / Rabbit serum looped peptides / Binding of a rabbit serum to linear peptides of protein N of SARS-CoV Urbani (Rabbit serum linear peptides) / Binding of a rabbit serum to looped/cyclic peptides of protein N of SARS-CoV Urbani (Rabbit serum looped peptides): unit not given here
[4] = test system: recombinant human anti-SARS-CoV antibody 03-018; assay type: binding; design: Binding of antibody 03-018 to linear peptides of the N protein of SARS-CoV Urbani / Binding of antibody 03-018 to looped/cyclic peptides of the N protein of SARS-CoV Urbani: unit not given here

Row | Sequence | Binding of serum 1a to linear peptides of protein N of SARS-CoV Urbani [1] | Binding of serum 1a to looped/cyclic peptides of protein N of SARS-CoV Urbani [1] | Binding of serum 1b to linear peptides of protein N of SARS-CoV Urbani [1] | Binding of serum 1b to looped/cyclic peptides of protein N of SARS-CoV Urbani [1] | Binding of serum 2 to linear peptides of protein N of SARS-CoV Urbani [1] | Binding of serum 2 to looped/cyclic peptides of protein N of SARS-CoV Urbani [1] | Binding of serum 6 to linear peptides of protein N of SARS-CoV Urbani [1] | Binding of serum 6 to looped/cyclic peptides of protein N of SARS-CoV Urbani [1] | Binding of serum 37 to linear peptides of protein N of SARS-CoV Urbani [1] | Binding of serum 37 to looped/cyclic peptides of protein N of SARS-CoV Urbani [1] | Binding of serum 62 to linear peptides of protein N of SARS-CoV Urbani [1] | Binding of serum 62 to looped/cyclic peptides of protein N of SARS-CoV Urbani [1] | Binding of serum London to linear peptides of protein N of SARS-CoV Urbani [1] | Binding of serum London to looped/cyclic peptides of protein N of SARS-CoV Urbani [1] | Binding of serum SARS-green to linear peptides of protein N of SARS-CoV Urbani [1] | Binding of serum SARS-green to looped/cyclic peptides of protein N of SARS-CoV Urbani [1] | Binding of serum SARS-yellow to linear peptides of protein N of SARS-CoV Urbani [1] | Binding of serum SARS-yellow to looped/cyclic peptides of protein N of SARS-CoV Urbani [1] | Binding of a rabbit serum to linear peptides of protein N of SARS-CoV Urbani (Rabbit serum linear peptides) [3] | Binding of a rabbit serum to looped/cyclic peptides of protein N of SARS-CoV Urbani (Rabbit serum looped peptides) [3] | further results
1 | KMKELSPRWYFYYLG | 0.2 | 0.3 | 0.1 | 0.2 | 0.1 | 0.4 | 0.1 | 0.3 | 0.5 | 0.7 | 0.5 | 0.7 | 0.4 | 0.4 | 0.1 | 0.4 | 0.6 | 0.6 | 0.1 | 0.6 | Binding of Control Serum Blood-Bank to Looped peptides [2]: 0.8; Binding of Control serum Blood-bank to linear peptides [2]: 0.6; Binding of Control serum LUMC to linear peptides [2]: 0.5; Binding of Control serum LUMC to looped peptides [2]: 0.6; Binding of antibody 03-018 to linear peptides of the N protein of SARS-CoV Urbani [4]: 0.1; Binding of antibody 03-018 to looped/cyclic peptides of the N protein of SARS-CoV Urbani [4]: 0.2
2 | KQRRPQGLPNNTASW | 0.2 | 0.4 | 0.1 | 0.2 | 0.2 | 0.4 | 0.1 | 0.4 | 0.7 | 0.6 | 0.6 | 0.5 | 0.4 | 0.6 | 0.3 | 0.3 | 0.5 | 0.7 | 0.1 | 0.6 | Binding of Control Serum Blood-Bank to Looped peptides [2]: 0.6; Binding of Control serum Blood-bank to linear peptides [2]: 0.7; Binding of Control serum LUMC to linear peptides [2]: 0.5; Binding of Control serum LUMC to looped peptides [2]: 0.6; Binding of antibody 03-018 to linear peptides of the N protein of SARS-CoV Urbani [4]: 0.1; Binding of antibody 03-018 to looped/cyclic peptides of the N protein of SARS-CoV Urbani [4]: 0.2
3 | KTDEAQPLPQRQKKQ | 0.3 | 0.3 | 0.2 | 0.1 | 0.3 | 0.3 | 0.3 | 0.6 | 0.9 | 0.3 | 0.9 | 0.1 | 1.4 | 0.7 | 0.6 | 0.2 | 1.5 | 0.5 | 0.0 | 0.0 | Control Serum Blood-Bank Looped peptides [2]: 0.4; Control serum Blood-bank linear peptides [2]: 0.7; Control serum LUMC linear peptides [2]: 0.9; Control serum LUMC looped peptides [2]: 0.4; Binding of antibody 03-018 to linear peptides of the N protein of SARS-CoV Urbani [4]: 0.1; Binding of antibody 03-018 to looped/cyclic peptides of the N protein of SARS-CoV Urbani [4]: 0.2
